Measured values as given in patent US8404664B2, “Phosphonated Rifamycins and uses thereof for the prevention and treatment of bone and joint infections” (Targanta Therapeutics, Inc., priority 2005, dated 2013).
≈ marks a conversion by molar mass, not a printed value. Where “and” joins values, the source holds several entries; their conditions need not be identical. Identical values can stand only once.

Assays:
S. aureus ATCC 13709 [1] = assay: Antibacterial susceptibility (MIC) in the presence of serum; assay type: cell-based; details: for MIC: Staphylococcus aureus, ATCC13709, 18 h
Description: (§1) Susceptibility of S. aureus strains to the known antibiotics and synthesized compounds was determined by following the guidelines set by NCCLS (M26-A). Compounds were diluted two-fold serially in DMSO and transferred to cation-adjusted Mueller Hinton broth (CAMHB; Becton Dickinson). 50 μL of compounds diluted in CAMHB was mixed with 100 μL of bacteria diluted in CAMHB in 96-well microtiter plates. The final concentration of micro-organisms in the assay was 5×10^5 c.f.u. per mL and the final concentration of DMSO in the assay was 1.25%. Assays were set up in duplicate and incubated at 37° C. for 18 h. The lowest concentration of compound that inhibited visible growth was reported as the minimum inhibitory concentration (MIC).
Susceptibility testing experiments were also carried out in the presence of serum.
These experiments were carried out similar to the susceptibility testing with the following modifications. 75 μL of compounds diluted in CAMHB was mixed with 75 μL of bacteria diluted in 100% serum from any given source (commercial pooled mouse serum (MS) and human serum (HS), Equitech-Bio Inc.) or diluted in 8% purified human serum albumin (HSA) (Calbiochem). The final concentration of animal serum in the assay was 50% and the final concentration of purified human serum albumin in the assay was 4%; the concentrations of all other components were identical to those described for susceptibility testing.

[2] = Regeneration of drug from bone powder-bound prodrug; assay type: in vitro ADME
Description: Amounts of parent drug “regenerated” from the phosphonated prodrug were measured as follows. Washed bone powder-bound prodrugs from the above experiment were resuspended in 400 μL PBS+2% DMSO or in 400 μL 50% (v/v in PBS+2% DMSO) human or rat serum. The suspension was incubated overnight at 37° C., centrifuged at 13,000 rpm for 2 min and the supernatant was recovered. The amount of regenerated parent drug in the supernatant was determined by measurements using the microbiological assay that was previously described for the prodrugs themselves. The amount of prodrug was deduced from standard curves of known amounts of parent drug that were used as reference for each experiment.

[3] = system: E. coli LBB925 (tolC mutant); assay: Antibacterial susceptibility (MIC), NCCLS broth microdilution; assay type: cell-based; details: for Minimum inhibitory concentration, E. coli LBB925: tolC mutant; for MIC: Escherichia coli, read-out: Minimum inhibitory concentration, E. coli LBB925
[4] = system: S. aureus ATCC 13709 Novobiocin and Rifampicin resistant variant; assay: microbe, parasite or virus in culture; assay type: cell-based; details: for Minimum inhibitory concentration, S. aureus ATCC 13709 variant: Novobiocin and Rifampicin resistant variant
Description: as §1

S. aureus RN4220 = assay: Antibacterial susceptibility (MIC), NCCLS broth microdilution; assay type: cell-based; details: CAMHB, 37° C., 18 h; for MIC: Staphylococcus aureus, RN4220, read-out: Minimum inhibitory concentration, S. aureus RN4220
Description: as §1

[5] = system: S. aureus ATCC 43300 (Fluoroquinolone sensitive MRSA); assay: as above; assay type: cell-based; details: for MIC: Staphylococcus aureus, read-out: Minimum inhibitory concentration, S. aureus ATCC 43300
Description: as §1

[6] = system: S. aureus BK85 (Fluoroquinolone resistant MRSA); assay: as above; assay type: cell-based; details: for MIC: Staphylococcus aureus, read-out: Minimum inhibitory concentration, S. aureus BK85
Description: as §1

S. aureus ATCC 13709 [7] = assay: as above; assay type: cell-based; details: for Antibacterial activity (in words, summary of Table 1): summary over the strains of Table 1; for MIC: Staphylococcus aureus, ATCC13709, read-out: Minimum inhibitory concentration, S. aureus ATCC 13709
Description: as §1

[8] = system: S. aureus ATCC 13709 Novobiocin resistant mutant (bone infection); assay: Prophylactic efficacy in rat model of S. aureus bone infection; assay type: in vivo; details: rat tibia 24 h postinfection
Description: Specifically, a spontaneous Novobiocin resistant mutant strain of S. aureus ATCC 13709 (a clinical osteomyelitis isolate), was grown overnight at 37° C. in brain heart infusion broth (BHIB). After 16 h of growth, cells were subcultured into fresh BHIB and incubated for 4 to 5 h at 37° C. The cells were washed twice with phosphate-buffered saline (PBS) and resuspended in BHIB supplemented with 10% (vol./vol.) fetal bovine serum at a density of approximately 10^10 colony forming units (CFU)/ml (based upon turbidimetry). The suspension was aliquoted and a portion was used to check the CFU count. The culture was stored frozen (−80° C.) and was used without subculture. For use as an inoculum the culture was thawed, diluted in PBS and kept in an ice bath until it was used.
Animals were infected as described by O'Reilly et al. (Antimicrobial Agents and Chemotherapy (1992), 36(12): 2693-97) to generate the bone infection. Female CD rats (age, 57 to 70 days; n=5/group; Charles River, St-Constant, Canada) were anaesthetized by isofluorane before and during the surgery. Following complete induction of anesthesia, the rat was placed ventral side up and hair was shaved from the surgical site. The skin over the leg was cleaned and disinfected (proviodine-ethanol 70%). A longitudinal incision below the knee joint was made in the sagital plane. The incision was made over the bone below the “knee joint” (tibia head or condyle) but not completely extending to the ankle. A high speed drill fitted with a 2 mm bulb bit was used to drill a hole into the medullar cavity of the tibia. Rats were injected intra-tibially with 0.05 ml 5% sodium morrhuate (sclerosing agent) and then with 0.05 ml of S. aureus suspension (ca. 2×10^7 CFU/rat). The hole was sealed by applying a small amount of dry dental cement which immediately absorbs fluids and adheres to the site. The wound was closed using 3 metal skin clips. Moxifloxacin (as a positive control) was injected once at 10 mg/kg intravenously 1 h postinfection in saline, while the Rifamycin derived prodrugs (prepared in 0.9% saline) were injected at the dose indicated in Table 3 as a single intravenous bolus at different time points prior to the infection.
Infected rats were sacrificed by CO2 asphyxiation 24 h postinfection to monitor the bacterial CFU count. Infected tibiae were removed, dissected free of soft tissue, and weighed. The bones were ground, resuspended in 5 ml 0.9% NaCl, serially diluted and processed for quantitative cultures. For compounds 50, 68 and 81, 1 ml of the 0.9% NaCl solution was added to 50 mg of charcoal before serial dilutions. Treatment efficacy was measured in terms of Log viable bacteria (Log CFU per gram of bone). […] The limit of detection is 2 Log CFU. […] Differences were considered significant when the P value was <0.05 when comparing treated infected animals to the untreated infected ones. The doses used, the amount of time separating the treatment from the time of infection and the treatment outcomes are shown in Table 3.

[9] = read-out: Minimum inhibitory concentration, S. aureus ATCC 13709 + 50% Human Serum
[10] = read-out: Minimum inhibitory concentration, S. aureus ATCC 13709 + 50% Mouse Serum
[11] = read-out: Minimum inhibitory concentration, S. aureus ATCC 13709 + 50% Rat Serum

Row | SMILES | Impact of serum on the MICs (in words) (S. aureus ATCC 13709 [1]) | Minimum inhibitory concentration, S. aureus ATCC 13709 + 50% Human Serum (S. aureus ATCC 13709 [1]) | Minimum inhibitory concentration, S. aureus ATCC 13709 + 50% Mouse Serum (S. aureus ATCC 13709 [1]) | Minimum inhibitory concentration, S. aureus ATCC 13709 + 50% Rat Serum (S. aureus ATCC 13709 [1]) | Minimum inhibitory concentration, E. coli LBB925 [3] | Activity against the Rifampicin resistant variant of S. aureus ATCC13709 (in words) [4] | Minimum inhibitory concentration, S. aureus ATCC 13709 variant [4] | Minimum inhibitory concentration, S. aureus RN4220 (S. aureus RN4220) | Minimum inhibitory concentration, S. aureus ATCC 43300 [5] | Minimum inhibitory concentration, S. aureus BK85 [6] | Minimum inhibitory concentration, S. aureus ATCC 13709 (S. aureus ATCC 13709 [7]) | Antibacterial activity (in words, summary of Table 1) (S. aureus ATCC 13709 [7]) | MIC (S. aureus ATCC 13709 [1]; [9]) | MIC (S. aureus ATCC 13709 [1]; [10]) | MIC (S. aureus ATCC 13709 [1]; [11]) | MIC [3] | MIC (S. aureus RN4220) | MIC [5] | MIC (S. aureus ATCC 13709 [7]) | MIC [6] | also measured
1 | CCN(CC)CC.CCN(CC)CC.CO[C@H]1/C=C/O[C@@]2(C)Oc3c(C)c(O)c4c(c3C2=O)C2=NC3(CCN(CC(C)C)CC3)NC2=C(NC(=O)/C(C)=C\C=C\[C@H](C)[C@H](OC(=O)CCC(=O)NC(P(=O)(O)O)P(=O)(O)O)[C@@H](C)[C@@H](O)[C@@H](C)[C@H](OC(C)=O)[C@@H]1C)C4=O [Compound 39, 21-O-(3-((bisphosphonomethyl)carbamoyl)propanoyl)-1′,4-didehydro-1-deoxy-1,4-dihydro-5′-(2-methylpropyl)-1-oxorifamycin XIV] | no impact | >128 µg/mL | >128 µg/mL | 64 µg/mL | 128 µg/mL | complete lack of activity | >128 µg/mL | >128 µg/mL | >128 µg/mL | >128 µg/mL | >128 µg/mL | near complete loss of activity |  |  |  |  |  |  |  |  | Regeneration of parent drug once bound to bone (in words) [2]: not able to regenerate
2 | CCN(CC)CC.CCN(CC)CC.CO[C@H]1/C=C/O[C@@]2(C)Oc3c(C)c(O)c4c(c3C2=O)C2=NC3(CCN(CC(C)C)CC3)NC2=C(NC(=O)/C(C)=C\C=C\[C@H](C)[C@H](OC(=O)CCCOC(=O)CCC(=O)NC(P(=O)(O)O)P(=O)(O)O)[C@@H](C)[C@@H](O)[C@@H](C)[C@H](OC(C)=O)[C@@H]1C)C4=O [Compound 54, 21-O-(4-((3-(bisphosphonomethyl)carbamoyl)propanoyloxy)butanoyl)-1′,4-didehydro-1-deoxy-1,4-dihydro-5′-(2-methylpropyl)-1-oxorifamycin XIV] | no impact | >128 µg/mL | >128 µg/mL | >128 µg/mL | >128 µg/mL | complete lack of activity | >128 µg/mL | 64 µg/mL | 64 µg/mL | 64 µg/mL | 64 µg/mL | near complete loss of activity |  |  |  |  |  |  |  |  | 
3 | CO[C@H]1/C=C/O[C@@]2(C)Oc3c(C)c(O)c4c(=O)c(c5oc6cc(N7CCN(CCO)CC7)cc(O)c6nc-5c4c3C2=O)NC(=O)/C(C)=C\C=C\[C@H](C)[C@H](O)[C@@H](C)[C@@H](O)[C@@H](C)[C@H](OC(C)=O)[C@@H]1C [Compound 56, 1′,4-Didehydro-1-deoxy-1,4-dihydro-3′-hydroxy-5′-[4-(2-hydroxyethyl)-1-piperazinyl]-1-oxorifamycin VIII] |  |  |  |  |  |  |  |  |  |  |  |  | 0.001 µg/mL | 0.002 µg/mL | 0.002 µg/mL | 8 µg/mL (≈ 8610 nM) | 0.00025 µg/mL (≈ 0.269 nM) | 0.00025 µg/mL (≈ 0.269 nM) | 0.00025 µg/mL (≈ 0.269 nM) |  | Measured bacterial titer ([8]; single dose 20 mg/kg parent drug equivalent, 2 days prior to infection): 3.61 ± 1.57 Log CFU/g of bone
4 | CO[C@H]1/C=C/O[C@@]2(C)Oc3c(C)c(O)c4c(=O)c(c5oc6cc(N7CCNCC7)cc(O)c6nc-5c4c3C2=O)NC(=O)/C(C)=C\C=C\[C@H](C)[C@H](O)[C@@H](C)[C@@H](O)[C@@H](C)[C@H](OC(C)=O)[C@@H]1C [Compound 69, 1′,4-Didehydro-1-deoxy-1,4-dihydro-3′-hydroxy-5′-[1-piperazinyl]-1-oxorifamycin VIII] |  |  |  |  |  |  |  |  |  |  |  |  | 0.0019 µg/mL | 0.0019 µg/mL | 0.0019 µg/mL | 4 µg/mL (≈ 4520 nM) |  |  | 0.00048 µg/mL (≈ 0.542 nM) | 0.00024 µg/mL (≈ 0.271 nM) | 
5 | COc1c(N2C[C@@H]3CCCN[C@@H]3C2)c(F)cc2c(=O)c(C(=O)O)cn(C3CC3)c12 [Moxifloxacin, reference compound] |  |  |  |  |  |  |  |  |  |  |  |  |  |  |  |  |  |  |  |  | Measured bacterial titer, positive control ([8]; 10 mg/kg intravenously once, 1 h postinfection, 10 mg/kg): 2.36 ± 0.21 Log CFU/g of bone and 2.53 ± 0.39 Log CFU/g of bone and 2.59 ± 0.56 Log CFU/g of bone and 2.46 ± 0.52 Log CFU/g of bone and 2.56 ± 0.64 Log CFU/g of bone and 2.20 ± 0.33 Log CFU/g of bone and 2.32 ± 0.33 Log CFU/g of bone and 2.06 ± 0.04 Log CFU/g of bone
6 | CO[C@H]1/C=C/O[C@@]2(C)Oc3c(C)c(O)c4c(O)c(c(/C=N/N5CCN(C)CC5)c(O)c4c3C2=O)NC(=O)/C(C)=C\C=C\[C@H](C)[C@H](O)[C@@H](C)[C@@H](O)[C@@H](C)[C@H](OC(C)=O)[C@@H]1C [Rifampicin, reference compound] |  |  |  |  |  |  |  |  |  |  |  |  | 0.062 µg/mL | 0.125 µg/mL | 0.125 µg/mL | 8 µg/mL (≈ 9720 nM) | 0.008 µg/mL (≈ 9.72 nM) | 0.008 µg/mL (≈ 9.72 nM) | 0.008 µg/mL (≈ 9.72 nM) | 0.008 µg/mL (≈ 9.72 nM) | MIC ([4]; Staphylococcus aureus, ATCC13709, read-out: Minimum inhibitory concentration, S. aureus ATCC 13709 variant): > 128 µg/mL
